Test results published in patent publication EP4810038A1, “METHOD FOR TREATING ALK-POSITIVE OR ROS1-POSITIVE NON-SMALL CELL LUNG CANCER” (Shenzhen TargetRx Co., Ltd., priority 2023, dated 2025).
“And” between values parts separate entries of the source, which are not always exact repeats. Identical values can stand only once. “Also recorded” adds a separate entry of the source.

Test system: ALK-positive advanced NSCLC
Assay: Phase I clinical trial, indication expansion phase: efficacy in ALK-positive patients (group A cohort 1: prior crizotinib only; cohort 2: prior second-generation ALK inhibitor; group C: ALK inhibitor naive)
Format: in vivo, human
Experimental: The anti-tumor efficacy is evaluated according to RECIST version 1.1. For patients initially evaluated as having a complete response (CR) or partial response (PR), efficacy should be confirmed at least 4 weeks later. In the patients with asymptomatic central nervous system (CNS) metastases, in addition to evaluating 5 extracranial target lesions, up to 5 intracranial target lesions will also be evaluated. The specific indicators are as follows:
"ORR" includes CR and PR, and is defined as the proportion of patients who achieve complete response or partial response.
"IC-ORR" includes CR or PR for confirmed intracranial lesions, and is defined as the proportion of the patients with complete response or partial response of intracranial lesions among the patients with intracranial lesions.
"DCR" is defined as the proportion of the patients who achieve response (PR+CR) and stable disease (SD) after a treatment.
"IC-DCR" is defined as the proportion of the patients who achieve intracranial response (PR+CR), intracranial stable disease (SD), and […] after a treatment among the patients with intracranial lesions.
"DOR" is defined as the time from the first assessment of CR or PR to progressive disease or death, and is only applicable to the patients who achieve response.
"IC-DOR" is defined as the time from the first assessment of intracranial CR or intracranial PR to progressive disease or death, and is only applicable to the patients whose intracranial lesions achieve response.
"TTR" is defined as the time from patient enrollment (first dose of investigational drug) to tumor response (CR/PR), based on the patients with objective response.
"IC-TTR" is defined as the time from patient enrollment (first dose of investigational drug) to intracranial tumor response (IC-CR/PR), based on the patients with intracranial objective response.
"PFS" is defined as the time from the first administration of the investigational drug to progressive disease (PD) or death from any cause, whichever comes first.
In the indication expansion phase, an appropriate administration regimen was determined based on the safety, tolerability, PK and efficacy data from the dose escalation phase and dose expansion phase, and the expansion was performed within the target population.
The result of a pregnancy test conducted ≤7 days prior to the first administration of the investigational drug must be negative for the women of childbearing age.

[1] = A cohort 2, prior 3 or more second-generation ALK inhibitors, chemotherapy (N=11)
[2] = A cohort 2, prior 3 or more second-generation ALK inhibitors, no chemotherapy (N=7)
[3] = A cohort 2, prior one second-generation ALK inhibitor, chemotherapy (N=14)
[4] = A cohort 2, prior one second-generation ALK inhibitor, no chemotherapy (N=26)
[5] = A cohort 2, prior two second-generation ALK inhibitors, chemotherapy (N=15)
[6] = A cohort 2, prior two second-generation ALK inhibitors, no chemotherapy (N=24)
[7] = intracranial measurable lesions, Group A, cohort 1 (n=4)
[8] = intracranial measurable lesions, Group A, cohort 2 (n=27)
[9] = intracranial measurable lesions, Group C (n=8)
[10] = intracranial measurable lesions, In total (ALK-positive) (n=52)
[11] = systemic, Group A, cohort 1 (n=14)
[12] = systemic, Group A, cohort 2 (n=97)
[13] = systemic, In total (ALK-positive) (n=144)

## [2H]C([2H])([2H])n1nc2c(c1C#N)-c1cnc(N)c(c1)O[C@H](C)c1cc(F)ccc1C(=O)N(C)C2 [compound A, (10R)-7-amino-12-fluoro-2-(methyl-d3)-10,16-dimethyl-15-oxo-10,15,16,17-tetrahydro-2H-8,4-(metheno)pyrazolo[4,3-h][2,5,11]benzoxadiazacyclotetradecine-3-carbonitrile]
14 patients previously received crizotinib with or without chemotherapy
  ORR: 71.4%
33 ALK TKI-treatment naive patients
  ORR: 84.8%
97 patients previously received a second-generation TKI
  overall ORR: 39.2%
[1]
  BOR CR: 0 n (%)
  BOR NE: 0 n (%)
  BOR PD: 1 (9.1) n (%)
  BOR PR: 3 (27.3) n (%)
  BOR SD: 7 (63.6) n (%)
  Confirmed ORR (95% CI): 3 (27.3) (6.0, 61.0) n (%)
  DCR (95% CI): 10 (90.9) (58.7, 99.8) n (%)
  Median TTR (range): 1.35 (1.28, 7.00) months
[2]
  BOR CR: 0 n (%)
  BOR NE: 1 (14.3) n (%)
  BOR PD: 0 n (%)
  BOR PR: 3 (42.9) n (%)
  BOR SD: 3 (42.9) n (%)
  Confirmed ORR (95% CI): 3 (42.9) (9.9, 81.6) n (%)
  DCR (95% CI): 6 (85.7) (42.1, 99.6) n (%)
  Median TTR (range): 1.35 (1.35, 1.45) months
[3]
  BOR CR: 0 n (%)
  BOR NE: 1 (7.1) n (%)
  BOR PD: 4 (28.6) n (%)
  BOR PR: 6 (42.9) n (%)
  BOR SD: 3 (21.4) n (%)
  Confirmed ORR (95% CI): 6 (42.9) (17.7, 71.1) n (%)
  DCR (95% CI): 9 (64.3) (35.1, 87.2) n (%)
  Median TTR (range): 2.07 (1.35, 6.90) months
[4]
  BOR CR: 0 n (%)
  BOR NE: 0 n (%)
  BOR PD: 6 (23.1) n (%)
  BOR PR: 9 (34.6) n (%)
  BOR SD: 11 (42.3) n (%)
  Confirmed ORR (95% CI): 9 (34.6) (17.2, 55.7) n (%)
  DCR (95% CI): 20 (76.9) (56.4, 91.0) n (%)
  Median TTR (range): 1.38 (1.28, 6.80) months
[5]
  BOR CR: 0 n (%)
  BOR NE: 0 n (%)
  BOR PD: 2 (13.3) n (%)
  BOR PR: 6 (40.0) n (%)
  BOR SD: 7 (46.7) n (%)
  Confirmed ORR (95% CI): 6 (40.0) (16.3, 67.7) n (%)
  DCR (95% CI): 13 (86.7) (59.5, 98.3) n (%)
  Median DOR (95% CI): 12.45 (5.39, -) months
  Median TTR (range): 1.40 (1.31, 2.79) months
[6]
  BOR CR: 0 n (%)
  BOR NE: 0 n (%)
  BOR PD: 3 (12.5) n (%)
  BOR PR: 11 (45.8) n (%)
  BOR SD: 10 (41.7) n (%)
  Confirmed ORR (95% CI): 11 (45.8) (25.6, 67.2) n (%)
  DCR (95% CI): 21 (87.5) (67.6, 97.3) n (%)
  Median DOR (95% CI): 12.48 (2.76, -) months
  Median TTR (range): 1.38 (1.35, 9.72) months
ALK TKI-naive, 8 patients with measurable CNS lesions at baseline
  intracranial ORR: 75%
Cohort 2 of group A, FAS, as of April 17, 2024
  median PFS: 6.87 months
[7]
  BOR CR: 1 n (%) and 1 (25.0) n (%)
  BOR NE: 0 n (%)
  BOR PD: 0 n (%)
  BOR PR: 1 n (%) and 1 (25.0) n (%)
  BOR SD: 2 (50.0) n (%)
  Confirmed ORR (95% CI): 2 (50.0) (6.8, 93.2) n (%)
  DCR (95% CI): 4 (100) (39.8, 100.0) n (%)
  Median DOR (95% CI): not reached; also recorded: NR (NR, NR)
  Median TTR (range): 1.36 months and 1.36 (1.35, 1.38) months
[8]
  BOR CR: 5 n (%) and 5 (18.5) n (%)
  BOR NE: 1 (3.7) n (%)
  BOR PD: 0 n (%)
  BOR PR: 14 n (%) and 14 (51.9) n (%)
  BOR SD: 7 (25.9) n (%)
  Confirmed ORR (95% CI): 19 (70.4) (49.8, 86.2) n (%)
  DCR (95% CI): 26 (96.3) (81.0, 99.9) n (%)
  Median DOR (95% CI): 17.97 months and 17.97 (6.64, NR) months
  Median TTR (range): 1.41 months and 1.41 (1.31, 9.72) months
[9]
  BOR CR: 0 n (%)
  BOR NE: 0 n (%)
  BOR PD: 0 n (%)
  BOR PR: 6 n (%) and 6 (75.0) n (%)
  BOR SD: 2 (25.0) n (%)
  Confirmed ORR (95% CI): 6 (75.0) (34.9, 96.8) n (%)
  DCR (95% CI): 8 (100) (63.1, 100) n (%)
  Median DOR (95% CI): not reached; also recorded: NR (4.17, NR)
  Median TTR (range): 1.41 months and 1.41 (1.35, 1.45) months
[10]
  BOR CR: 6 (11.5) n (%)
  BOR NE: 2 (3.8) n (%)
  BOR PD: 1 (1.9) n (%)
  BOR PR: 24 (46.2) n (%)
  BOR SD: 19 (36.5) n (%)
  Confirmed ORR (95% CI): 30 (57.7) (43.2, 71.3) n (%)
  DCR (95% CI): 49 (94.2) (84.1, 98.8) n (%)
  Median DOR (95% CI): 17.97 (17.97, -) months
  Median TTR (range): 1.40 (1.31, 9.72) months
Prior crizotinib, four patients with measurable CNS lesions at baseline
  intracranial ORR: 50.0%
Prior second-generation TKI, 27 patients with measurable CNS lesions at baseline
  IC-ORR: 70.4%
[11]
  BOR CR: 0 n (%)
  BOR NE: 0 n (%)
  BOR PD: 0 n (%)
  BOR PR: 10 n (%) and 10 (71.4) n (%)
  BOR SD: 4 n (%) and 4 (28.6) n (%)
  Confirmed ORR (95% CI): 10 (71.4) (41.9, 91.6) n (%)
  DCR (95% CI): 14 (100) (76.8, 100.0) n (%)
  Median DOR (95% CI): not reached; also recorded: NR (5.585, NR)
  Median TTR (range): 2.71 months and 2.71 (1.25, 9.66) months
[12]
  BOR CR: 0 n (%)
  BOR NE: 2 (2.1) n (%)
  BOR PD: 16 (16.5) n (%)
  BOR PR: 38 (39.2) n (%)
  BOR SD: 41 (42.3) n (%)
  Confirmed ORR (95% CI): 38 (39.2) (29.4, 49.6) n (%)
  DCR (95% CI): 79 (81.4) (72.3, 88.6) n (%)
  Median DOR (95% CI): 12.48 months and 12.48 (12.45, NR) months
  Median TTR (range): 1.38 months and 1.38 (1.28, 9.72) months
systemic, Group C (n=33)
  BOR CR: 0 n (%)
  BOR NE: 0 n (%)
  BOR PD: 1 (3.0) n (%)
  BOR PR: 28 n (%) and 28 (84.8) n (%)
  BOR SD: 4 n (%) and 4 (12.1) n (%)
  Confirmed ORR (95% CI): 28 (84.8) (68.1, 94.9) n (%)
  DCR (95% CI): 32 (97.0) (84.2, 99.9) n (%)
  Median DOR (95% CI): not reached; also recorded: NR (9.69, NR)
  Median TTR (range): 1.35 months and 1.35 (1.12, 4.21) months
[13]
  BOR CR: 0 n (%)
  BOR NE: 5 (2.9) n (%)
  BOR PD: 21 (12.3) n (%)
  BOR PR: 84 (49.1) n (%)
  BOR SD: 61 (35.7) n (%)
  Confirmed ORR (95% CI): 84 (49.1) (41.4, 56.9) n (%)
  DCR (95% CI): 145 (84.8) (78.5, 89.8) n (%)
  Median DOR (95% CI): 12.48 (12.45, -) months
  Median TTR (range): 1.38 (1.12, 13.96) months
